Assay results from ChEMBL document CHEMBL1151295, “11-Methoxy-macusine A. A new quaternary alkaloid from Strychnos angolensis” (1983).

Assay: Muscle relaxant activity in rat diaphragm assessed as inhibition of electrically-stimulated contraction
Assay type: functional

C/C=C1/C[N+]2(C)[C@H]3C[C@@H]1[C@@](CO)(C(=O)OC)[C@@H]2Cc1c3[nH]c2cc(OC)ccc12 [11-METHOXY MACUSINE A]
Activity: 0.16 mg/kg
